Measurements published in US20170022260A9 (Sanofi, priority 2013, published 2017).
Values after ≈ are worked out from the molar mass of the structure shown.

Tests used:
physchem = type: physicochemical
Protocol: Prior to the testing of solubility and stability of a peptide batch, its content was determined Therefore, two parameters were investigated, its purity (HPLC-UV) and the amount of salt load of the batch (ion chromatography).
. Therefore, solutions from solid samples were prepared in different buffer systems with a concentration of 1.0 mg/mL compound based on the previously determined content. HPLC-UV was performed after 2 h of gentle agitation from the supernatant, which was obtained by 20 min of centrifugation at 4000 rpm.
This analysis also served as starting point (t0) for the stability testing.
As HPLC/UPLC method, method D or E has been used.

[1] = test system: Female diabetic dbdb-mice; experiment: Glucose lowering in female diabetic dbdb-mice; type: in vivo; settings: 100 μg/kg s.c.
Protocol: Female diabetic dbdb-mice (BKS.Cg-+Leprdb/+Leprdb/OlaHsd) 10 weeks of age at study start were used. Mice were habituated to feeding and housing conditions for at least 2 weeks. 7 days prior to study start, HbA1c were determined to allocate mice to groups, aiming to spread low, medium and high HbA1c-values and in consequence the group-means (n=8), as equally as possible. On the day of study, food was removed, directly before sampling for baseline glucose assessment (t=0 min) Immediately afterwards, compounds or vehicle (phosphor buffered saline, PBS) were administered subcutaneously, 100 μg/kg, 10 ml/kg. Afterwards, blood samples were drawn by tail tip incision at 15, 30, 60, 90, 120, 150, 180, 240, 360, 480 min and 24 h. Food was re-offered after the 480 min-sampling.
Data were analysed by 2-W-ANOVA on repeated measurements, followed by Dunnett's test as post-hoc assessment, level of significance p<0.05.

| Molecule | solubility at 2 h (physchem; pH 4.5, solubility pH 4.5) [µg/mL] | solubility at 2 h (physchem; pH 7.4, solubility pH 7.4) [µg/mL] | reduction of glucose compared to vehicle control, statistical significance ([1]; female db/db-mice, p<0.05, 2-way-ANOVA, Dunnett's post-hoc test) | maximal effect, glucose reduction ([1]; non-fasted female db/db-mice, change from baseline (baseline on average 28 mmol/l)) [mmol/1] |
| --- | --- | --- | --- | --- |
| CC[C@H](C)[C@H](NC(=O)[C@H](CC(C)C)NC(=O)[C@H](Cc1c[nH]c2ccccc12)NC(=O)[C@H](CCC(=O)O)NC(=O)[C@@H](NC(=O)[C@H](Cc1ccccc1)NC(=O)[C@H](CCC(=O)O)NC(=O)[C@H](CCCCN)NC(=O)[C@H](C)NC(=O)[C@H](CCCNC(=N)N)NC(=O)[C@H](CCC(N)=O)NC(=O)[C@H](CCC(=O)O)NC(=O)[C@H](CC(=O)O)NC(=O)[C@H](CC(C)C)NC(=O)[C@H](CCC(N)=O)NC(=O)[C@H](CCCCN)NC(=O)[C@H](CO)NC(=O)[C@H](CC(C)C)NC(=O)[C@H](CC(=O)O)NC(=O)[C@H](CO)NC(=O)[C@@H](NC(=O)[C@H](Cc1ccccc1)NC(=O)[C@@H](NC(=O)CNC(=O)[C@H](CCC(N)=O)NC(=O)[C@H](CO)NC(=O)[C@@H](N)Cc1c[nH]cn1)[C@@H](C)O)[C@@H](C)O)[C@@H](C)CC)C(=O)N[C@@H](C)C(=O)NCC(=O)NCC(=O)N1CCC[C@H]1C(=O)N[C@H](C(=O)N[C@@H](CO)C(=O)NCC(=O)N[C@@H](C)C(=O)N1CCC[C@H]1C(=O)N1CCC[C@H]1C(=O)N1CCC[C@H]1C(=O)N[C@@H](CO)C(N)=O)C(C)C [SEQ ID NO: 6, HSQGTFTSDLSKQLDEQRAKEFIEWLIAGGPVSGAPPPS-NH2] | 934 (≈ 223 µM) | > 1000 |  |  |
| H-Aib-HGTFTSDLSKQLDEQRAKDFIEWLIAGGPSSGAPPPS-NH2 [SEQ ID NO: 10] |  |  | statistical significant reduction of glucose compared to vehicle control from t=60 min until 240 min | ~12 |
